The term inhibition denotes the drop in the measured response relative to a control, in per cent. A word on the IC50: it is the concentration that gives 50% inhibition.

From US5750574A, “Fluorinated N-arylmethylamino derivatives of cyclobutene-3,4-diones” (American Home Products Corporation, priority 1997, dated 1998) come the findings set out here.

In assay [1] the test system is isolated rat bladder strips (smooth muscle). The experiment in a line: Inhibition of contractions in isolated rat bladder strips. Conditions: 15 mM KCl-enhanced contractions; for inhibition at 30 µM: read-out: Percent inhibition at 30 μM (footnote a); for IC50: 0.5 h, 30 minute challenge, ± spread. Also noted: species or system Sprague-Dawley rat. As to the method:
The smooth muscle relaxing activity of the compounds of this invention was established in accordance with standard pharmaceutically accepted test procedures with representative compounds as follows:
Sprague-Dawley rats (150-200 g) are rendered unconscious by CO2 asphyxiation and then euthanized by cervical dislocation. The bladder is removed into warm (37° C.) physiological salt solution (PSS) of the following composition (mM): NaCl, 118.4; KCl, 4.7; CaCl2, 2.5; […]; NaHCO3, 24.9; KH2 PO4, 1.2; glucose, 11.1; EDTA, 0.023; gassed with 95% O2; […]; pH 7.4 The bladder is opened and then cut into strips 1-2 mm in width and 7-10 mm in length. The strips are subsequently suspended in a 10 mL tissue bath under an initial resting tension of 1.5 g. The strips are held in place by two surgical clips one of which is attached to a fixed hook while the other is attached to an isometric force transducer. […] The carbachol is then washed out and the tissue allowed to relax to its resting level of activity. Following a further 30 min. period of recovery an additional 15 mM KCl are introduced into the tissue bath. This increase in KCl concentration results in a large increase in the amplitude of spontaneous contractions (and initiation of contractions in previously quiescent strips) superimposed upon a small increase in basal tone. Following stabilization of this enhanced level of contractile activity, incremental increases in the concentration of test compound or vehicle are introduced into the tissue bath. Contractile activity is measured for each compound or vehicle concentration during the last minute of a 30 minute challenge.
The isometric force developed by the bladder strips is measured using a […] to elicit 50% inhibition of pre-drug contractile activity (IC50 concentration) and is calculated from this concentration-response curve.

For assay [2], the system named is hypertrophied bladder (detrussor) smooth muscle. Briefly: Inhibition of spontaneous contractions in vivo, hypertrophied rat bladder model. Further details: species or system female Sprague-Dawley rat. Conditions: 3 mg/kg p.o.; 4 animals; conscious rats. The source says: In addition, we tested the ability of compounds to inhibit the hyperactivity of hypertrophied bladder (detrussor) smooth muscle in conscious female rats with hypertrophied bladders and thereby alleviate urinary incontinence in rats according to the following protocol described by Malmgren (A. Malmgren, K. E. Andersson, C. Sjogren, P. O. Andersson, Effects of pinacidil and Cromakalim (BRL 34915) on Bladder Function in Rats with Detrusor Instability, J. Urol. 142:1134, 1989.):
Female Sprague-Dawley rats, ranging in weight from 190-210 g are used. Up to 25 animals are prepared each time. After development of bladder hypertrophy 4-8 animals are used per test.
Compounds are dissolved in PEG-200 and administered by gastric gavage or intraveneously in a volume of 5 ml/kg. For primary screening all drugs are administered at the arbitrary dose of 10 mg/kg p.o. to groups of 4 rats.
The animals are anesthetized with halothane. Through a midline incision the bladder and urethra are exposed and a ligature of 4-0 silk is tied around the proximal urethra in the presence of a stainless steel rod (1 mm diameter) to produce a partial occlusion. The rod is then removed. The abdominal region is closed using surgical staples and each rat receives 150,000 units of bicillin C-R. The animals ar allowed six weeks to develop sufficient bladder hypertrophy. After six weeks, the ligature is removed under halothane anesthesia and a catheter (PE 60) with a cuff is placed in the dome of the bladder and secured with a purse string suture. The catheter is tunneled under the skin and exteriorized through an opening in the back of the neck. The abdominal incision is sutured and the free end of the catheter sealed. In order to prevent infections the rats receive an injection of bicillin C-R (150000 units/rat). Two days later the animals are used in cystometrical evaluations. The animals are placed in the metabolic cages and the catheter is attached (using a "T" connector) to a Statham pressure transducer (Model P23Db) and to a Harvard infusion pump. A plastic beaker attached to a force displacement transducer (Grass FT03) is placed under the rat's cage to collect and record urine volume. Animals are allowed 15-30 min to rest before the saline infusion (20 ml/hr for 20 minutes) is started for the first cystometry period. […]
The following urodynamic variables are recorded: […]
The mean value of each variable is calculated before and after compound administration. For each compound the changes in the variables measured are compared to the values obtained before treatment and expressed as percent inhibition. The data are also subjected to 2-way analysis of variance to determine significant (p<0.05) changes in the variable measured. […]

As to `CC(C)(C)Nc1c(NCc2ccc(OC(F)(F)F)cc2)c(=O)c1=O` [Example 3, 3-tert-Butylamino-4-(4-trifluoromethoxy-benzylamino)-cyclobut-3-ene-1,2-dione], in assay [1], the inhibition at 30 µM worked out at 16.2%. For `C[C@@H](Nc1c(NCc2ccc(F)cc2)c(=O)c1=O)C(C)(C)C` [Example 1, (R)-3-(4-Fluoro-benzylamino)-4-(1,2,2-trimethyl-propylamino)-cyclobut-3-ene-1,2-dione], in assay [1], the IC50 is 0.76 ± 0.46 µM. For the same compound, in assay [2], the “% Ampl: Percent change in the amplitude of spontaneous contractions in the hypertrophied rat bladder model” value is -64 ± 3% and the “% Red (F): Percent reduction in the total number of spontaneous contractions in the hypertrophied rat bladder model” value is 3 ± 25%. For `CC(C)(C)Nc1c(NCc2cccc(C(F)(F)F)c2)c(=O)c1=O` [Example 10, 3-tert-Butylamino-4-(3-trifluoromethyl-benzylamino)-cyclobut-3-ene-1,2-dione], the IC50 in assay [1] turned out to be 7.9 ± 2.7 µM. Still for that read-out and setting: the value for `CC(C)(C)Nc1c(NCc2ccc(C(F)(F)F)cc2)c(=O)c1=O` [Example 4, 3-tert-Butylamino-4-(4-trifluoromethyl-benzylamino)-cyclobut-3-ene-1,2-dione] was 6.5 ± 0.87 µM; that for `C[C@@H](Nc1c(NCc2ccccc2F)c(=O)c1=O)C(C)(C)C` [Example 15, (R)-3-(2-fluoro-benzylamino)-4-(1,2,2-trimethyl-propylamino) cyclobut-3-ene-1,2-dione] was 1.23 ± 0.22 µM.

Turning to `C[C@@H](Nc1c(NCc2ccccc2C(F)(F)F)c(=O)c1=O)C(C)(C)C` [Example 14, (R)-3-(2-trifluoromethyl-benzylamino)-4-(1,2,2-trimethyl-propylamino) cyclobut-3-ene-1,2-dione], the IC50 in assay [1] is 20.4 ± 7.8 µM. Same read-out and setting: for `CC(C)(C)Nc1c(NCc2ccccc2C(F)(F)F)c(=O)c1=O` [Example 11, 3-tert-Butylamino-4-(2-trifluoromethyl-benzylamino)-cyclobut-3-ene-1,2-dione] the value was 2.3 ± 0.51 µM.

As to `C[C@@H](Nc1c(NCc2cccc(C(F)(F)F)c2)c(=O)c1=O)C(C)(C)C` [Example 13, (R)-3-(3-trifluoromethyl-benzylamino)-4-(1,2,2-trimethyl-propylamino) cyclobut-3-ene-1,2-dione], the inhibition at 30 µM in assay [1] is 40.1%. With `CC(C)(C)Nc1c(NCc2cccc(F)c2)c(=O)c1=O` [Example 8, 3-tert-Butylamino-4-(3-fluoro-benzylamino)-cyclobut-3-ene-1,2-dione], the IC50 in assay [1] was 2.4 ± 0.36 µM. Still for that read-out and setting: for `CC(C)(C)Nc1c(NCc2ccccc2F)c(=O)c1=O` [Example 9, 3-tert-Butylamino-4-(2-fluoro-benzylamino)-cyclobut-3-ene-1,2-dione] the value was 2.08 ± 0.25 µM. Regarding `C[C@@H](Nc1c(NCc2ccc(C(F)(F)F)cc2)c(=O)c1=O)C(C)(C)C` [Example 2, (R)-3-(4-trifluoromethyl-benzylamino)-4-(1,2,2-trimethyl-propylamino)-cyclobut-3-ene-1,2-dione], the IC50 in assay [1] came to 6.5 ± 1.9 µM. `CC(C)(C)Nc1c(NCc2cccc(OC(F)(F)F)c2)c(=O)c1=O` [Example 12, 3-tert-Butylamino-4-(3-trifluoromethoxy-benzylamino)-cyclobut-3-ene-1,2-dione]: the IC50 in assay [1] turned out to be 13.6 ± 3.3 µM. Turning to `CCC(C)(C)Nc1c(NCc2ccc(F)cc2)c(=O)c1=O` [Example 7, 3-(1,1-Dimethyl-propylamino)-4-(4-fluoro-benzylamino)-cyclobut-3-ene-1,2 dione], in assay [1], the IC50 came out at 0.36 ± 0.14 µM. In assay [2], the “% Ampl: Percent change in the amplitude of spontaneous contractions in the hypertrophied rat bladder model” value is given as -3 ± 35% and the “% Red (F): Percent reduction in the total number of spontaneous contractions in the hypertrophied rat bladder model” value came to 67 ± 2%.

Regarding `C[C@@H](Nc1c(NCc2cccc(OC(F)(F)F)c2)c(=O)c1=O)C(C)(C)C` [Example 16, (R)-3-(3-trifluoromethoxy-benzylamino)-4-(1,2,2-trimethyl-propylamino)-cyclobut3-ene-1,2-dione], in assay [1], the inhibition at 30 µM stood at 10%. Take `CC(C)(C)Nc1c(NCc2ccc(F)cc2)c(=O)c1=O` [Example 5, 3-tert-Butylamino-4-(4-fluoro-benzylamino)-cyclobut-3-ene-1,2-dione]: the IC50 in assay [1] is 1.5 ± 0.32 µM. As for `C[C@@H](Nc1c(NCc2ccc(OC(F)(F)F)cc2)c(=O)c1=O)C(C)(C)C` [Example 6, (R)-3-(4-trifluoromethoxy-benzylamino)-4-(1,2,2-trimethyl-propylamino)-cyclobut-3-ene-1,2-dione], the inhibition at 30 µM in assay [1] stood at 20.4%.
